Values joined by “and” are separate entries in the source; they are usually repeats but may differ in a detail not shown here. Identical values can stand only once.
How the values were obtained:
[1] = system: patients with previously untreated AML; assay: Phase 1b/2 study (NCT02343939): response (complete remission) to entospletinib monotherapy lead-in followed by daunorubicin/cytarabine induction; assay type: in vivo, human
Source text: (§1) Patients with residual disease two weeks after chemotherapy received a second induction cycle identical to the first.

[2] = system: patients with previously untreated AML; assay: Phase 1b/2 study (NCT02343939): platelet counts and platelet transfusions (FIG. 2, FIG. 3); assay type: in vivo, human; settings: for mean number of platelet transfusions required per subject: across monotherapy lead-in and induction cycles; for mean number of transfusions required per subject: induction treatment
Source text: as §1

[3] = system: patients with previously untreated AML; assay: Phase 1b/2 study (NCT02343939): tolerability, dose limiting toxicity and adverse events
Source text: as §1

[4] = system: patients with previously untreated AML; assay: Phase 1b/2 study (NCT02343939): absolute neutrophil counts / neutrophil recovery (FIG. 1)
Source text: as §1

[5] = clinical; Nijjar J. S., et al., Rheumatology 2013; cited from earlier work

In the case of `c1cn2cc(-c3ccc4cn[nH]c4c3)nc(Nc3ccc(N4CCOCC4)cc3)c2n1` [entospletinib], the “patients requiring a second induction” value ([1]; 200 mg BID, 3 patients) is reported as “two required a second induction”, the “patients requiring a second induction” value ([1]; 400 mg BID, 6 patients) is reported as “none required a second induction” and the “response after the 14 day entospletinib monotherapy window” value ([1]; person with 11q23-rearranged AML, prior to chemotherapy) is reported as “morphologic and cytogenetic CR”. For the same compound, the “platelet transfusions during monotherapy window” value ([2]; 200 mg dose level) was “One subject received platelet transfusions”, the “platelet transfusions during monotherapy window” value ([2]; 400 mg dose level) was “no transfusions were required” and the “mean number of platelet transfusions required per subject” value ([2]; 200 mg dose level) was 8.7. The “mean number of platelet transfusions required per subject” value ([2]; 400 mg dose level) was 4.1, the “mean number of platelet transfusions required per subject” value ([2]; overall (both dose levels)) was 5.5 and the “platelet response during the window period” value ([2]; another patient with 11q23-rearranged AML, monotherapy window) was “significant platelet response”. The “mean number of transfusions required per subject” value ([2]; Cycle 1 (with daunorubicin/cytarabine)) was 4.1, the “mean number of transfusions required per subject” value ([2]; Cycle 2 (with daunorubicin/cytarabine)) was 5.5 and the platelet count ([2]; two week entospletinib monotherapy window) was “remained stable, or in some cases, improved from baseline”. For the same compound, the “dose limiting toxicity (DLT)” value ([3]; 200 mg BID po, three patients) was “no DLT was observed”, the “dose limiting toxicity (DLT)” value ([3]; 400 mg BID po, 3 additional patients (DL 1 expansion)) was “none of whom experienced DLT” and the “adverse event possibly related to entospletinib” value ([3]; 400 mg BID po, one of three patients (documented fungal pneumonia), did not meet DLT criteria) was “grade 3 pneumonitis”. The “tolerability of single-agent entospletinib” value ([3]; monotherapy window period (up to 14 days), before chemotherapy) was “well tolerated”, the “most common non hematologic adverse events” value ([3]; overall, inclusive of intensive chemotherapy periods (daunorubicin + cytarabine)) was “febrile neutropenia, nausea, and diarrhea” and the “recovery time from severe neutropenia” value ([4]; 200 mg dose level, only evaluable subject with severe neutropenia at baseline) was 66 days. For the same compound, the “ANC recovered to during treatment” value ([4]; 400 mg dose level, all three evaluable subjects under severe neutropenia cutoff of 200/μL ANC at baseline) was “above 200 /μL”, the “individual time to recovery from severe neutropenia” value ([4]; 400 mg dose level, individual subjects with severe neutropenia at baseline) was 8 days (2×) and 14 days and the “subjects experiencing severe neutropenia during monotherapy lead-in” value ([4]; 400 mg dose level, subjects without severe neutropenia at baseline, recovered to above 200/μL by end of first induction cycle) was “two of the five subjects”. For the same compound, the “median (Q1, Q3) time to recovery from severe neutropenia” value ([4]; 400 mg dose level, three subjects with severe neutropenia at baseline) was 8 (8, 14) days, the “absolute neutrophil counts (ANC)” value ([4]; entospletinib monotherapy lead-in period) was “remained largely stable” and the “severe neutropenia during induction treatment” value ([4]; five subjects (both dose levels) without severe neutropenia at baseline) was “none experienced severe neutropenia”.
For `COc1cc(Nc2ncc(F)c(Nc3ccc4c(n3)N(COP(=O)(O)O)C(=O)C(C)(C)O4)n2)cc(OC)c1OC` [Fostamatinib], the adverse side effects [5] is given as “hypertension, neutropenia and transaminitis”.
